In this experiment the test system is protein kinase C. In words: Inhibition of the protein kinase C activity in vitro (protein kinase C assay kit, Calbiochem). The class given is biochemical. The note with it: both isomers as well as the racemate; test not specified at the place. The method, then:
For testing the inhibitory effect on protein kinase C a commercially available protein kinase C assay kit (e.g. Calbiochem, Cat. No. 538484) may be employed. For this purpose the phosphorylation of a pseudosubstrate is measured by means of a specific antibody. The substances to be investigated are employed as solution in dimethylsulfoxid. […] By means of this assay the effects on individual PKC isoforms and the inhibition thereof may be tested. The effective concentration may be then determined at a given ATP concentration.
According to this Calbiochem kit it is worked with a batch of 200 μl/well in the following manner: 13 μl of buffer solution, 26 μl of 1 mM ATP (pH 7.0), 13 μl of phosphatidyl serine (500 μg/ml), 13 μl of 20 mM CaCl2, 65 μl of H2O and 55 μl of H2O, respectively, and 10 μl of inhibitor solution in DMSO are mixed, wherein 108 μl are added to an uncoated well. 12 μl of PKC solution (protein content and activity respectively of 0.1 U/12 μl) are added thereto and 100 μl thereof are added to the coated microtiter plate. After incubation for 20 min at room temperature 100 μl stop solution is added. Then washing is done five times with washing solution. […] Thereafter there is again a treatment with 100 μl of stop solution, and then the measurement is done in the Elisa reader at 492 nm. […]

The structures appear in SMILES notation.

For the compound `O=C(O)C1Cc2c([nH]c3ccccc23)C2(N1)C(=O)C(c1c[nH]c3ccccc13)=C(c1c[nH]c3ccccc13)C2=O` (stereo not shown) [Pityriarubine A], the inhibitory effect entry is recorded as “distinct inhibitory effect”.

The values are drawn from US20040116499A1, “Indole derivatives having an inhibitory effect on protein kinases” (priority 2001, published 2004).
